One assay addresses Carbonic anhydrase 9 (Homo sapiens, UniProt Q16790).
A further assay addresses Carbonic anhydrase 12 (Homo sapiens, UniProt O43570).

Carbonic anhydrase 12, sequence (O43570 whole entry): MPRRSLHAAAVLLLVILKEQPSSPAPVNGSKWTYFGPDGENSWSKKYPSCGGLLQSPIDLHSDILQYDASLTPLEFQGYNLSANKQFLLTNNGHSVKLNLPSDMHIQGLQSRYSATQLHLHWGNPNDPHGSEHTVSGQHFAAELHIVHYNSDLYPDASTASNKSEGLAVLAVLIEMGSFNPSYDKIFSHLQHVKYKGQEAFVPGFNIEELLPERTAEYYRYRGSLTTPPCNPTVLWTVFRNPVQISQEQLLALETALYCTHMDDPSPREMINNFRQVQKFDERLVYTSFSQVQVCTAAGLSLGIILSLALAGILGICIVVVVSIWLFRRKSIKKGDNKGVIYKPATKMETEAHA
Description for Carbonic anhydrase 12: Inhibition of human recombinant CA12 by CO2 hydration stopped flow assay
Description for Carbonic anhydrase 9: Inhibition of human recombinant CA9 by CO2 hydration stopped flow assay

By Ki is commonly meant the dissociation constant of the complex between target and ligand, obtained from inhibition or displacement. Low readings indicate tighter binding, high ones weaker binding. Molecule `NS(=O)(=O)c1ccc(NC(=O)CN(CCN(CCN(CC(=O)O)CC(=O)Nc2ccc(S(N)(=O)=O)cc2)CC(=O)O)CC(=O)O)cc1` registered an inhibition constant (Ki) at Carbonic anhydrase 9 of 8.4 nM.
`NS(=O)(=O)c1ccc(CNC(=O)CN(CCN(CC(=O)O)CC(=O)NCc2ccc(S(N)(=O)=O)cc2)CC(=O)O)cc1` gave a Ki at Carbonic anhydrase 9 of 7.3 nM.
Still for that read-out and setting: the figure for `NS(=O)(=O)c1cccc(NC(=O)CN(CCN(CC(=O)O)CC(=O)Nc2cccc(S(N)(=O)=O)c2)CC(=O)O)c1` is 7.9 nM.
Same read-out and setting: the figure for `NS(=O)(=O)c1ccc(CNC(=O)CN(CCN(CCN(CC(=O)O)CC(=O)NCc2ccc(S(N)(=O)=O)cc2)CC(=O)O)CC(=O)O)cc1` is 8.7 nM; for `NS(=O)(=O)c1ccc(CCNC(=O)CN(CCN(CCN(CC(=O)O)CC(=O)NCCc2ccc(S(N)(=O)=O)cc2)CC(=O)O)CC(=O)O)cc1` it is 7.5 nM.
The same measure, in the same setting: the figure for `NS(=O)(=O)c1cccc(NC(=O)CN(CCN(CCN(CC(=O)O)CC(=O)Nc2cccc(S(N)(=O)=O)c2)CC(=O)O)CC(=O)O)c1` is 9.6 nM.
`NS(=O)(=O)c1ccc(NC(=O)CN(CCN(CC(=O)O)CC(=O)Nc2ccc(S(N)(=O)=O)cc2)CC(=O)O)cc1`: on Carbonic anhydrase 9, the Ki came out at 7.8 nM.
Molecule `NS(=O)(=O)c1ccc(CCNC(=O)CN(CCN(CC(=O)O)CC(=O)NCCc2ccc(S(N)(=O)=O)cc2)CC(=O)O)cc1` gave a Ki at Carbonic anhydrase 9 of 8.2 nM.
The same measure, in the same setting: the figure for `NS(=O)(=O)c1nnc(NC(=O)CN(CCN(CC(=O)O)CC(=O)Nc2nnc(S(N)(=O)=O)s2)CC(=O)O)s1` is 8.5 nM; for `NS(=O)(=O)c1nnc(NC(=O)CN(CCN(CCN(CC(=O)O)CC(=O)Nc2nnc(S(N)(=O)=O)s2)CC(=O)O)CC(=O)O)s1` it is 8.3 nM.
With `O=C1NS(=O)(=O)c2ccccc21` [SACCHARIN], the results for the Ki at Carbonic anhydrase 9 and on Carbonic anhydrase 12 were 103 nM and 633 nM, respectively.

For the origin of these results see ChEMBL document CHEMBL1143206, “Carbonic anhydrase inhibitors: copper(II) complexes of polyamino-polycarboxylamido aromatic/heterocyclic sulfonamides are very potent inhibitors of the tumor-associated isoforms IX and XII” (Bioorg Med Chem Lett, 2008).
